Experimental data published in paper PMC11560554 (Chembiochem : a European journal of chemical biology, 2024).

Biological target: T1, human macrophage galactose-type lectin (hMGL) (Homo sapiens, UniProt Q8IUN9)
T1 sequence (Q8IUN9 1-316): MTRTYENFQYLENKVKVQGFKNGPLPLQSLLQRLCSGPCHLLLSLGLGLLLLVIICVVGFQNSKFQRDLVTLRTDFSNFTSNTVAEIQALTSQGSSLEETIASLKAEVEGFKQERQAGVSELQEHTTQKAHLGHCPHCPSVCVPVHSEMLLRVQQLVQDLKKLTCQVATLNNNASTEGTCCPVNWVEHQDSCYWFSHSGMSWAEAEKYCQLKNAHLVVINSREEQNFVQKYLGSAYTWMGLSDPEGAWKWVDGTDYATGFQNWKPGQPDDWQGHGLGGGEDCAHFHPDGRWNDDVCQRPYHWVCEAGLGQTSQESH
Assay: ITC analysis of binding of GalNAc and MUC1

[1] = 10 mM HEPES sodium salt, 50 mM NaCl, 2 mM CaCl2, pH 7.4, 298 K, one-site model

- KA [1]: 68000 M⁻¹
- ΔG [1]: -6.59 kcal/mol
- −TΔS [1]: 4.97 kcal/mol
- n (stoichiometry) (complete saturation of hMGL, functional valency = 1/n, pH 7.4, 298 K): 0.99
Structure (SMILES): CC(=O)N[C@H]1C(O)O[C@H](CO)[C@H](O)[C@@H]1O (mixture of isomers) [GalNAc, N-acetylgalactosamine]
